Results from the supplement of paper PMC11451515.

System: P12-Ichikawa
Test: cell viability relative to DMSO control; higher = less cytotoxic
Conditions: 48 h
Summary of the method: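 NOMO1 or SEM (500 cells/well) or P12-Ichikawa (1000 cells/well) leukemia cells were adapted for at least four passages in each medium. They were seeded in 1536-well plates (5 μl) and pin-dosed with library compounds in DMSO over an 11-point threefold series, 47 μM to 0.79 nM. CellTiter-Glo One luminescence was read after 48 h at 37°C. Viability is the per-plate percentage relative to DMSO wells, with cell-free wells as background.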

[1] = HPLM + 10% dialyzed FBS, 0.000781 µM
[2] = HPLM + 10% dialyzed FBS, 0.00234 µM
[3] = HPLM + 10% dialyzed FBS, 0.00702 µM
[4] = HPLM + 10% dialyzed FBS, 0.0211 µM
[5] = HPLM + 10% dialyzed FBS, 0.0632 µM
[6] = HPLM + 10% dialyzed FBS, 0.19 µM
[7] = HPLM + 10% dialyzed FBS, 0.569 µM
[8] = HPLM + 10% dialyzed FBS, 1.71 µM
[9] = HPLM + 10% dialyzed FBS, 5.12 µM
[10] = HPLM + 10% dialyzed FBS, 15.4 µM
[11] = HPLM + 10% dialyzed FBS, 46.1 µM
[12] = RPMI 5 mM glucose + 10% FBS, 0.000781 µM
[13] = RPMI 5 mM glucose + 10% FBS, 0.00234 µM
[14] = RPMI 5 mM glucose + 10% FBS, 0.00702 µM
[15] = RPMI 5 mM glucose + 10% FBS, 0.0211 µM
[16] = RPMI 5 mM glucose + 10% FBS, 0.0632 µM
[17] = RPMI 5 mM glucose + 10% FBS, 0.19 µM
[18] = RPMI 5 mM glucose + 10% FBS, 0.569 µM
[19] = RPMI 5 mM glucose + 10% FBS, 1.71 µM
[20] = RPMI 5 mM glucose + 10% FBS, 5.12 µM
[21] = RPMI 5 mM glucose + 10% FBS, 15.4 µM
[22] = RPMI 5 mM glucose + 10% FBS, 46.1 µM
[23] = RPMI 5 mM glucose + 10% dialyzed FBS, 0.000781 µM
[24] = RPMI 5 mM glucose + 10% dialyzed FBS, 0.00234 µM
[25] = RPMI 5 mM glucose + 10% dialyzed FBS, 0.00702 µM
[26] = RPMI 5 mM glucose + 10% dialyzed FBS, 0.0211 µM
[27] = RPMI 5 mM glucose + 10% dialyzed FBS, 0.0632 µM
[28] = RPMI 5 mM glucose + 10% dialyzed FBS, 0.19 µM
[29] = RPMI 5 mM glucose + 10% dialyzed FBS, 0.569 µM
[30] = RPMI 5 mM glucose + 10% dialyzed FBS, 1.71 µM
[31] = RPMI 5 mM glucose + 10% dialyzed FBS, 5.12 µM
[32] = RPMI 5 mM glucose + 10% dialyzed FBS, 15.4 µM
[33] = RPMI 5 mM glucose + 10% dialyzed FBS, 46.1 µM

SMILES | cell viability [1] | cell viability [2] | cell viability [3] | cell viability [4] | cell viability [5] | cell viability [6] | cell viability [7] | cell viability [8] | cell viability [9] | cell viability [10] | cell viability [11] | cell viability [12] | cell viability [13] | cell viability [14] | cell viability [15] | cell viability [16] | cell viability [17] | cell viability [18] | cell viability [19] | cell viability [20] | cell viability [21] | cell viability [22] | cell viability [23] | cell viability [24] | cell viability [25] | cell viability [26] | cell viability [27] | cell viability [28] | cell viability [29] | cell viability [30] | cell viability [31] | cell viability [32] | cell viability [33]
Oc1ccc(-c2nc(-c3ccncc3)c(-c3ccc(F)cc3)[nH]2)cc1 | 115% | 112% | 118% | 114% | 124% | 120% | 130% | 115% | 64.3% | 13% | 5.07% | 99.2% | 99.7% | 117% | 111% | 111% | 126% | 117% | 115% | 98.8% | 60.7% | 2.19% | 103% | 112% | 113% | 119% | 123% | 113% | 130% | 116% | 82.7% | 46% | 6.46%
Cc1cc(-c2ccc(CC(=O)Nc3ccc(-c4cccnc4)cc3)cc2)ccn1 | 113% | 113% | 121% | 115% | 118% | 111% | 112% | 108% | 97.7% | 57.1% | 70.2% | 117% | 119% | 121% | 117% | 118% | 132% | 111% | 106% | 111% | 89.9% | 62.6% | 112% | 110% | 111% | 114% | 119% | 108% | 104% | 106% | 96.3% | 69.1% | 55.7%
CN1\C(=C(O)/C2=C(C=C(Cl)S2)[S+]1([O-])=O)C(=O)NC3=NC=CC=C3 | 125% | 123% | 118% | 107% | 122% | 119% | 113% | 112% | 110% | 104% | 100% | 124% | 125% | 118% | 116% | 128% | 114% | 121% | 128% | 123% | 118% | 106% | 121% | 119% | 125% | 115% | 114% | 118% | 121% | 117% | 104% | 98.1% | 96.2%
CNCCN(C)Cc1c[nH]nc1-c1ccc(O[C@H]2C[C@H](OCCC3CCOCC3)C2)cc1 | 104% | 120% | 124% | 119% | 122% | 122% | 135% | 123% | 95.1% | 90.1% | 118% | – | – | – | – | – | – | – | – | – | – | – | – | – | – | – | – | – | – | – | – | – | –
CC(C)(OCc1nn(Cc2ccccc2)c2ccccc12)C(=O)O | 104% | 101% | 101% | 104% | 102% | 96% | 103% | 101% | 101% | 96.3% | 105% | 99.3% | 92.4% | 104% | 95.9% | 101% | 88.6% | 98.6% | 94.9% | 96.2% | 92.8% | 94.5% | 97.1% | 89.1% | 95.8% | 90.1% | 92.6% | 84.6% | 87.9% | 89.3% | 88.8% | 85.8% | 85%
